Experimental data as given in patent publication US12264134B2 (Merck Sharp & Dohme LLC, priority 2018, dated 2025).

Biological target: IDO1 (Homo sapiens, UniProt P14902)
Assay: IDO1 Cellular Assay in HeLa Cells Stimulated with IFNγ
Type: cell-based
Conditions: read-out: HeLa Cell Potency, IC50

Sequence of IDO1 (P14902 whole entry): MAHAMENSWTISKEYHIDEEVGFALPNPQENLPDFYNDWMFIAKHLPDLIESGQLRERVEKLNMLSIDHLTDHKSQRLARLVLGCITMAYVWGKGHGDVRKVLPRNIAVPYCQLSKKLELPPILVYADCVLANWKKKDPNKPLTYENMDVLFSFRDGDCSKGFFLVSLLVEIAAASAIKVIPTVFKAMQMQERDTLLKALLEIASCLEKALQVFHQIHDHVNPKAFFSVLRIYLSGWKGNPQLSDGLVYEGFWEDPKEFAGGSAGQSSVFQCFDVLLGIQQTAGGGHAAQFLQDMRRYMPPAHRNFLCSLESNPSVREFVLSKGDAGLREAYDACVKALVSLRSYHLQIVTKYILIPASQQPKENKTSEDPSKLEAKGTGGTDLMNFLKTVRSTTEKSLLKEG

Structure (SMILES)	IC50
Cc1cccc(N2CCN(C(=O)Cn3nc(C(=O)N4CCC(O)(CN(C)C)CC4)c4c3CCC4)CC2)c1C [Example 113, 2-[3-{4-[(dimethylamino)methyl]-4-hydroxypiperidine-1-carbonyl}-5,6-dihydrocyclopenta[c]pyrazol-1(4H)-yl]-1-[4-(2,3-dimethylphenyl)piperazin-1-yl]ethan-1-one]	372 nM
Cc1cccc(N2CCN(C(=O)Cn3nc(C(=O)N4[C@@H](C)COC[C@@H]4C)c4c3CCC4)CC2)c1C [Example 115, 2-{3-[(3S,5S)-3,5-dimethylmorpholine-4-carbonyl]-5,6-dihydrocyclopenta[c]pyrazol-1(4H)-yl}-1-[4-(2,3-dimethylphenyl)piperazin-1-yl]ethan-1-one]	176 nM
Cc1cccc(N2CCN(C(=O)Cn3nc(C(=O)N4CC5CCC4CC5)c4c3CCC4)CC2)c1C [Example 116, 2-[3-(2-azabicyclo[2.2.2]octane-2-carbonyl)-5,6-dihydrocyclopenta[c]pyrazol-1(4H)-yl]-1-[4-(2,3-dimethylphenyl)piperazin-1-yl]ethan-1-one]	11.6 nM
Cc1cccc(N2CCN(C(=O)Cn3nc(C(=O)N4CCN(C(=O)C(C)(C)O)CC4)c4c3CCC4)CC2)c1C [Example 117, 1-[4-(1-{2-[4-(2,3-dimethylphenyl)piperazin-1-yl]-2-oxoethyl}-1,4,5,6-tetrahydrocyclopenta[c]pyrazole-3-carbonyl)piperazin-1-yl]-2-hydroxy-2-methylpropan-1-one]	15.1 nM
Cc1cccc(N2CCN(C(=O)Cn3nc(C(=O)N4CCCC(O)CC4)c4c3CCC4)CC2)c1C (stereo not shown) [Example 118]	13.9 nM
Cc1cccc(N2CCN(C(=O)Cn3nc(C(=O)N4CCC(O)CC4(C)C)c4c3CCC4)CC2)c1C (stereo not shown) [Example 119, 1-[4-(2,3-dimethylphenyl)piperazin-1-yl]-2-[3-(4-hydroxy-2,2-dimethylpiperidine-1-carbonyl)-5,6-dihydrocyclopenta[c]pyrazol-1(4H)-yl]ethan-1-one]	33.3 nM
Cc1cccc(N2CCN(C(=O)Cn3nc(C(=O)N4CCC5(CC4)CC(=O)N(C)C5)c4c3CCC4)CC2)c1C [Example 121, 8-(1-{2-[4-(2,3-dimethylphenyl)piperazin-1-yl]-2-oxoethyl}-1,4,5,6-tetrahydrocyclopenta[c]pyrazole-3-carbonyl)-2-methyl-2,8-diazaspiro[4.5]decan-3-one]	17.1 nM
Cc1cccc(N2CCN(C(=O)Cn3nc(C(=O)N4CC[C@H](CO)[C@H](F)C4)c4c3CCC4)CC2)c1C [Example 122, 1-[4-(2,3-dimethylphenyl)piperazin-1-yl]-2-{3-[(3S,4R)-3-fluoro-4-(hydroxymethyl)piperidine-1-carbonyl]-5,6-dihydrocyclopenta[c]pyrazol-1(4H)-yl}ethan-1-one]	10.3 nM
Cc1cccc(N2CCN(C(=O)Cn3nc(C(=O)N4CCN(C5CC5)CC4)c4c3CCC4)CC2)c1C [Example 123, 2-[3-(4-cyclopropylpiperazine-1-carbonyl)-5,6-dihydrocyclopenta[c]pyrazol-1(4H)-yl]-1-[4-(2,3-dimethylphenyl)piperazin-1-yl]ethan-1-one]	10.1 nM
Cc1cccc(N2CCN(C(=O)Cn3nc(C(=O)N4CC5C(CO)C5C4)c4c3CCC4)CC2)c1C (stereo not shown) [Example 131, 1-[4-(2,3-dimethylphenyl)piperazin-1-yl]-2-{3-[6-(hydroxymethyl)-3-azabicyclo[3.1.0]hexane-3-carbonyl]-5,6-dihydrocyclopenta[c]pyrazol-1(4H)-yl}ethan-1-one]	23.2 nM
Cc1cccc(N2CCN(C(=O)Cn3nc(C(=O)N4CCC5(CC4)NC(=O)NC5=O)c4c3CCC4)CC2)c1C [Example 133, 8-(1-{2-[4-(2,3-dimethylphenyl)piperazin-1-yl]-2-oxoethyl}-1,4,5,6-tetrahydrocyclopenta[c]pyrazole-3-carbonyl)-1,3,8-triazaspiro[4.5]decane-2,4-dione]	141 nM
CC1=NC2(CCN(C(=O)c3nn(CC(=O)N4CCN(c5cccc(C)c5C)CC4)c4c3CCC4)CC2)C(=O)N1 [Example 134, 8-(1-{2-[4-(2,3-dimethylphenyl)piperazin-1-yl]-2-oxoethyl}-1,4,5,6-tetrahydrocyclopenta[c]pyrazole-3-carbonyl)-2-methyl-1,3,8-triazaspiro[4.5]dec-1-en-4-one]	15.8 nM
Cc1cccc(N2CCN(C(=O)Cn3nc(C(=O)N4CCC5(CC4)C[C@H](C)OC5=O)c4c3CCC4)CC2)c1C [Example 135, (3S)-8-(1-{2-[4-(2,3-dimethylphenyl)piperazin-1-yl]-2-oxoethyl}-1,4,5,6-tetrahydrocyclopenta[c]pyrazole-3-carbonyl)-3-methyl-2-oxa-8-azaspiro[4.5]decan-1-one]	38.5 nM
CNC(=O)C1CCN(C(=O)c2nn(CC(=O)N3CCN(c4cccc(C)c4C)CC3)c3c2CCC3)CC1 [Example 136, 1-(1-{2-[4-(2,3-dimethylphenyl)piperazin-1-yl]-2-oxoethyl}-1,4,5,6-tetrahydrocyclopenta[c]pyrazole-3-carbonyl)-N-methylpiperidine-4-carboxamide]	21.2 nM
Cc1cccc(N2CCN(C(=O)Cn3nc(C(=O)N4CCC(C(N)=O)CC4)c4c3CCC4)CC2)c1C [Example 137, 1-(1-{2-[4-(2,3-dimethylphenyl)piperazin-1-yl]-2-oxoethyl}-1,4,5,6-tetrahydrocyclopenta[c]pyrazole-3-carbonyl)piperidine-4-carboxamide]	19.3 nM
Cc1cccc(N2CCN(C(=O)Cn3nc(C(=O)N4CCC(O)C(CO)C4)c4c3CCC4)CC2)c1C (stereo not shown) [Example 148, 1-[4-(2,3-dimethylphenyl)piperazin-1-yl]-2-{3-[4-hydroxy-3-(hydroxymethyl)piperidine-1-carbonyl]-5,6-dihydrocyclopenta[c]pyrazol-1(4H)-yl}ethan-1-one]	7.98 nM
Cc1cccc(N2CCN(C(=O)Cn3nc(C(=O)N4C5CCC4CC(O)C5)c4c3CCC4)CC2)c1C (stereo not shown) [Example 150, 1-[4-(2,3-dimethylphenyl)piperazin-1-yl]-2-[3-(3-hydroxy-8-azabicyclo[3.2.1]octane-8-carbonyl)-5,6-dihydrocyclopenta[c]pyrazol-1(4H)-yl]ethan-1-one]	18.5 nM

Now those with a lower IC50, led by results:

IC50	Structure (SMILES)
3.6 nM	Cc1cccc(N2CCN(C(=O)Cn3nc(C(=O)N4CCC(O)C5CCCCC54)c4c3CCC4)CC2)c1C (stereo not shown) [Example 112, 1-[4-(2,3-dimethylphenyl)piperazin-1-yl]-2-[3-(4-hydroxyoctahydroquinoline-1(2H)-carbonyl)-5,6-dihydrocyclopenta[c]pyrazol-1(4H)-yl]ethan-1-one]
6.33 nM	Cc1cccc(N2CCN(C(=O)Cn3nc(C(=O)N4CCC5(CC4)COCC5O)c4c3CCC4)CC2)c1C (stereo not shown) [Example 114, 1-[4-(2,3-dimethylphenyl)piperazin-1-yl]-2-[3-(4-hydroxy-2-oxa-8-azaspiro[4.5]decane-8-carbonyl)-5,6-dihydrocyclopenta[c]pyrazol-1(4H)-yl]ethan-1-one]
4.55 nM	Cc1cccc(N2CCN(C(=O)Cn3nc(C(=O)N4CCC(n5cncn5)CC4)c4c3CCC4)CC2)c1C [Example 132, 1-[4-(2,3-dimethylphenyl)piperazin-1-yl]-2-{3-[4-(1H-1,2,4-triazol-1-yl)piperidine-1-carbonyl]-5,6-dihydrocyclopenta[c]pyrazol-1(4H)-yl}ethan-1-one]
3.92 nM	Cc1cccc(N2CCN(C(=O)Cn3nc(C(=O)N4CCC(n5nccn5)CC4)c4c3CCC4)CC2)c1C [Example 138, 1-[4-(2,3-dimethylphenyl)piperazin-1-yl]-2-{3-[4-(2H-1,2,3-triazol-2-yl)piperidine-1-carbonyl]-5,6-dihydrocyclopenta[c]pyrazol-1(4H)-yl}ethan-1-one]
6.98 nM	Cc1cccc(N2CCN(C(=O)Cn3nc(C(=O)N4CCC(S(C)(=O)=O)CC4)c4c3CCC4)CC2)c1C [Example 139, 1-[4-(2,3-dimethylphenyl)piperazin-1-yl]-2-{3-[4-(methylsulfonyl)piperidine-1-carbonyl]-5,6-dihydrocyclopenta[c]pyrazol-1(4H)-yl}ethan-1-one]
7.33 nM	Cc1cccc(N2CCN(C(=O)Cn3nc(C(=O)N4CCC5(CCC(=O)N5C)CC4)c4c3CCC4)CC2)c1C [Example 140, 8-(1-{2-[4-(2,3-dimethylphenyl)piperazin-1-yl]-2-oxoethyl}-1,4,5,6-tetrahydrocyclopenta[c]pyrazole-3-carbonyl)-1-methyl-1,8-diazaspiro[4.5]decan-2-one]
1.9 nM	Cc1cccc(N2CCN(C(=O)Cn3nc(C(=O)N4CCC5(CC4)CC5CO)c4c3CCC4)CC2)c1C (stereo not shown) [Example 143, 1-[4-(2,3-dimethylphenyl)piperazin-1-yl]-2-{3-[1-(hydroxymethyl)-6-azaspiro[2.5]octane-6-carbonyl]-5,6-dihydrocyclopenta[c]pyrazol-1(4H)-yl}ethan-1-one]
1.58 nM	Cc1cccc(N2CCN(C(=O)Cn3nc(C(=O)N4CCC(C(C)(C)O)CC4)c4c3CCC4)CC2)c1C [Example 144, 1-[4-(2,3-dimethylphenyl)piperazin-1-yl]-2-{3-[4-(2-hydroxypropan-2-yl)piperidine-1-carbonyl]-5,6-dihydrocyclopenta[c]pyrazol-1(4H)-yl}ethan-1-one]
1.77 nM	Cc1cccc(N2CCN(C(=O)Cn3nc(C(=O)N4CCC(c5cc[nH]n5)CC4)c4c3CCC4)CC2)c1C [Example 145, 1-[4-(2,3-dimethylphenyl)piperazin-1-yl]-2-{3-[4-(1H-pyrazol-3-yl)piperidine-1-carbonyl]-5,6-dihydrocyclopenta[c]pyrazol-1(4H)-yl}ethan-1-one]
3.96 nM	Cc1cccc(N2CCN(C(=O)Cn3nc(C(=O)N4CCC(O)C(F)(F)C4)c4c3CCC4)CC2)c1C (stereo not shown) [Example 149, 2-[3-(3,3-difluoro-4-hydroxypiperidine-1-carbonyl)-5,6-dihydrocyclopenta[c]pyrazol-1(4H)-yl]-1-[4-(2,3-dimethylphenyl)piperazin-1-yl]ethan-1-one]
4.63 nM	Cc1cccc(N2CCN(C(=O)Cn3nc(C(=O)N4CC5CCC4CC5O)c4c3CCC4)CC2)c1C (stereo not shown) [Example 151, 1-[4-(2,3-dimethylphenyl)piperazin-1-yl]-2-[3-(5-hydroxy-2-azabicyclo[2.2.2]octane-2-carbonyl)-5,6-dihydrocyclopenta[c]pyrazol-1(4H)-yl]ethan-1-one]
